Earlier results in patent US20080112910A1, “Cool feeling composition, cool feeling auxiliary composition, and use thereof” (priority 2002, published 2008).

Details: as compared with menthol

Question: Which “stimulation of cool feeling” value does the source give for `COC(=O)c1ccccc1O` [methyl salicylate] here?
Answer: The value was “very weak”.

Question: What about the “stimulation of hot feeling” value of the same compound?
Answer: The value was “strong”.
